Laboratory results as given in patent US20230172878A1, “COMPOSITIONS AND METHODS FOR TREATING CYTOKINE STORMS” (priority 2020, published 2023).

Tests used:
mice [1] = settings: cited from earlier work
mice [2] = settings: 10× higher doses than the human equivalent dose proposed for clinical trials; cited from earlier work
rats = settings: 10× higher doses than the human equivalent dose proposed for clinical trials; cited from earlier work
dogs = settings: 10× higher doses than the human equivalent dose proposed for clinical trials; cited from earlier work
THP-1 cells = assay: LPS-induced cytokine secretion by THP-1 cells; assay type: cell-based, human; settings: LPS 25 ng/ml, 24 hours
Description: THP-1 cells (a human monocytic cell line derived from an acute monocytic leukemia patient) were cultured to 80% confluence. The THP-1 cells were then treated with LPS at 25 ng/ml to induce cytokine secretion. Cells were treated with either various concentration of meglumine. Tissue culture media was harvested at 24 hours and the levels of cytokines were determined.

PBMCs [3] = assay: Cytokine production by morpholinofructose-stimulated PBMCs from two donors; assay type: cell-based, human
Description: For FIGS. 2 through 7, cells from two donors were used, each in a separate independent study. Cytokines secreted in the media by the cells were measured at 2, 4, 6, 24 and 48 hours.
In the following examples cells were stimulated known cytokine stimulants, either lipopolysaccharide (“LPS”) or morpholino fructose. […] Varying levels of meglumine, or a salt thereof were then administered to the stimulated cells and the resulting cytokine levels measured.
Peripheral blood mononuclear cells (“PBMC”s) from two donors were used to measure cytokine levels in response to various inputs. For each donor, one group of PBMCs were untreated. One group was allowed to remain in cell culture. A different group was treated with 40 mM meglumine. Another group was treated with morpholinofructose at 40 mM concentration. Three remaining groups were treated with morpholinofructose at 40 mM concentration and meglumine at concentration of 20 mM, 40 mM, and 80 mM. The groups were allowed to incubate for up to 50 hours. Cytokines secreted in the media by the cells were measured at 2, 4, 6, 24 and 48 hours The percentage of cells positive for IL-6 was determined by flow cytometry.
The same protocol was used to measure the addition of meglumine to reduce the levels of TNF-α (FIGS. 3A and 3B), MIP-1α (FIGS. 4A and 4B), MCP-1(FIGS. 5A and 5B), and MCP-1 ((FIGS. 6A and 6B).

PBMCs [4] = assay: LPS-stimulated cytokine-positive PBMCs, flow cytometry; assay type: cell-based, human; settings: 4 hours
Description: Lipopolysaccharide (LPS) at […] concentration was used as a positive control for cytokine production in PBMCs. Meglumine was added at 40 mM and the cells allowed to incubate for 4 hours before sorting. […] (p<0.05 vs unstimulated and p<0.05 vs LPS). FIG. 8. The same protocol was sued to measure IL-1α production. […] FIG. 9.

COc1cc2nc(N3CCN(C(=O)c4ccco4)CC3)nc(N)c2cc1OC [Prazosin, prazosin]
catecholamines and cytokine responses (mice [1]): reduces | survival (mice [1]; following various hyper-inflammatory stimuli): markedly increased survival

CNC[C@H](O)[C@@H](O)[C@H](O)[C@H](O)CO.Cl [meglumine HCl]
safety (mice [2]): safe | safety (rats): safe | safety (dogs): safe

CNC[C@H](O)[C@@H](O)[C@H](O)[C@H](O)CO [meglumine, (2R,3R,4R,5S)-6-(Methylamino)hexane-1,2,3,4,5-pentol]
lowest concentration at which cytokine reduction was exhibited (THP-1 cells): 10 mm | secretion of IL-8 (THP-1 cells; meglumine at high concentrations, FIG. 11): ability to interfere with the secretion | secretion of MIP-1α (THP-1 cells; meglumine at high concentrations, FIG. 13): ability to interfere with the secretion | secretion of MIP-1β (THP-1 cells; meglumine at high concentrations, FIG. 14): ability to interfere with the secretion | secretion of VEGF (THP-1 cells; meglumine at high concentrations, FIG. 15): ability to interfere with the secretion | IL-6 levels in the PBMCs (PBMCs [3]; 40 mM morpholinofructose plus meglumine 20, 40, 80 mM, measured at 2, 4, 6, 24 and 48 hours): reduced the IL-6 levels | TNF-α production (PBMCs [3]; 40 mM morpholinofructose plus various concentrations of meglumine, FIGS. 3A, 3B): decreased | MIP 1α production (PBMCs [3]; 40 mM morpholinofructose plus various concentrations of meglumine, FIGS. 4A, 4B): decreased | MCP 1 production (PBMCs [3]; 40 mM morpholinofructose plus various concentrations of meglumine, FIGS. 5A, 5B): decreased | IL-10 production (PBMCs [3]; 40 mM morpholinofructose plus various concentrations of meglumine, FIGS. 6A, 6B): decreased | LPS-stimulated increase in the percentage of IL-6 positive PBMCs (PBMCs [4]; LPS 40 mM, meglumine 40 mM, p<0.05 vs unstimulated and vs LPS, FIG. 8): significantly reduced | percentage of PBMCs expressing IL-1α (PBMCs [4]; combination of LPS and meglumine 40 mM, FIG. 9): significantly increased

O=C(CN1CCOCC1)[C@@H](O)[C@H](O)[C@H](O)CO [morpholinofructose, reference compound]
IL-6 production versus control cells (PBMCs [3]; human PBMCs incubated with 40 mM morpholinofructose, FIG. 7): significantly more IL-6 than control cells
